According to patent US6461997B1, “Triazole sulfones having herbicidal activity” (Monsanto Technology LLC, priority 1999, dated 2002):

Columns and labels:
STEME (common chickweed) = assay: Pre-emergence herbicidal activity, cool season; format: in vivo, Stellaria media; settings: lowest tested rate with 80% or greater inhibition; rates 300, 100, 30, 10 g/ha; about 14 days
Summary of the method: (§1)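 Seeds sown in sterilised fertilised topsoil received surface-applied compound in 50:50 acetone/water, typically at 300, 100, 30 and 10 g/ha, then greenhouse-grown at 30/21° C (warm-season species) or 18/13° C (cool-season species). Percent inhibition versus untreated plants was scored at about 14 days, giving GR80; an asterisk marks activity short of 80% at the top rate.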

SASKR (russian thistle) = assay: Pre-emergence herbicidal activity, cool season; format: in vivo, Salsola kali; settings: lowest tested rate with 80% or greater inhibition; rates 300, 100, 30, 10 g/ha; about 14 days
Summary of the method: as §1

SETVI (green foxtail) = assay: Pre-emergence herbicidal activity, cool season; format: in vivo, Setaria viridis; settings: GR80 = lowest tested rate (300, 100, 30, 10 g/ha) with 80% or greater inhibition; approx. 14 days after treating; 18/13° C.
Summary of the method: as §1

ECHCG (barnyardgrass) = assay: Pre-emergence herbicidal activity, warm season; format: in vivo, Echinochloa crus-galli; settings: GR80 = lowest tested rate (300, 100, 30, 10 g/ha) with 80% or greater inhibition; approx. 14 days after treating; 30/21° C.
Summary of the method: (§2)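 Activity is expressed as the rate giving 80% inhibition, with 300, 100, 30 and 10 g/ha typically tested. An asterisk marks activity short of 80% at the top rate. Warm-season grasses were held at 30/21 °C; cool-season blackgrass and wild buckwheat at 18/13 °C; scoring at about 14 days.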

SINAR (wild mustard) = assay: Pre-emergence herbicidal activity, cool season; format: in vivo, Sinapis arvensis; settings: lowest tested rate with 80% or greater inhibition; rates 300, 100, 30, 10 g/ha; about 14 days
Summary of the method: as §1

[1] = test system: CIRAR (canada thistle (seedling)); assay: Pre-emergence herbicidal activity, warm season; format: in vivo, Cirsium arvense; settings: GR80 = lowest tested rate (300, 100, 30, 10 g/ha) with 80% or greater inhibition; approx. 14 days after treating; 30/21° C.
Summary of the method: as §1

[2] = test system: PANMI (wild proso millet); assay: Pre-emergence herbicidal activity, warm season; format: in vivo, Panicum miliaceum; settings: GR80 = lowest tested rate (300, 100, 30, 10 g/ha) with 80% or greater inhibition; approx. 14 days after treating; 30/21° C.
Summary of the method: (§3)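 Herbicidal efficacy was judged visually as percent inhibition compared with untreated plants some 14 days after treatment, giving GR80 over doses of 10 to 300 g/ha. Proso millet and crabgrass grew at 30/21 °C; blackgrass and wild buckwheat grew at 18/13 °C.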

[3] = test system: CHEAL (common lambsquarters); assay: Pre-emergence herbicidal activity, warm season; format: in vivo, Chenopodium album; settings: GR80 = lowest tested rate (300, 100, 30, 10 g/ha) with 80% or greater inhibition; approx. 14 days after treating; 30/21° C.
Summary of the method: as §1

[4] = test system: SORHA (johnsongrass (seedling)); assay: Pre-emergence herbicidal activity, warm season; format: in vivo, Sorghum halepense; settings: GR80 = lowest tested rate (300, 100, 30, 10 g/ha) with 80% or greater inhibition; approx. 14 days after treating; 30/21° C.
Summary of the method: as §2

SOLNI (black nightshade) = assay: Pre-emergence herbicidal activity, warm season; format: in vivo, Solanum nigrum; settings: GR80 = lowest tested rate (300, 100, 30, 10 g/ha) with 80% or greater inhibition; approx. 14 days after treating; 30/21° C.
Summary of the method: as §1

ALOMY (blackgrass) = assay: Pre-emergence herbicidal activity, cool season; format: in vivo, Alopecurus myosuroides; settings: GR80 = lowest tested rate (300, 100, 30, 10 g/ha) with 80% or greater inhibition; approx. 14 days after treating; 18/13° C.
Summary of the method: as §3

SETFA (giant foxtail) = assay: Pre-emergence herbicidal activity, warm season; format: in vivo, Setaria faberi; settings: GR80 = lowest tested rate (300, 100, 30, 10 g/ha) with 80% or greater inhibition; approx. 14 days after treating; 30/21° C.
Summary of the method: as §2

AMARE (redroot pigweed) = assay: Pre-emergence herbicidal activity, warm season; format: in vivo, Amaranthus retroflexus; settings: GR80 = lowest tested rate (300, 100, 30, 10 g/ha) with 80% or greater inhibition; approx. 14 days after treating; 30/21° C.
Summary of the method: as §1

[5] = test system: AGSST (creeping bentgrass); assay: Pre-emergence herbicidal activity, cool season; format: in vivo, Agrostis stolonifera; settings: GR80 = lowest tested rate (300, 100, 30, 10 g/ha) with 80% or greater inhibition; approx. 14 days after treating; 18/13° C.
Summary of the method: as §1

[6] = test system: LAMPU (purple deadnettle); assay: Pre-emergence herbicidal activity, cool season; format: in vivo, Lamium purpureum; settings: lowest tested rate with 80% or greater inhibition; rates 300, 100, 30, 10 g/ha; about 14 days
Summary of the method: as §1

[7] = test system: GALAP (catchweed bedstraw); assay: Pre-emergence herbicidal activity, cool season; format: in vivo, Galium aparine; settings: lowest tested rate with 80% or greater inhibition; rates 300, 100, 30, 10 g/ha; about 14 days
Summary of the method: as §1

[8] = test system: AGRRE (quackgrass (seedling)); assay: Pre-emergence herbicidal activity, cool season; format: in vivo, Elymus repens; settings: GR80 = lowest tested rate (300, 100, 30, 10 g/ha) with 80% or greater inhibition; approx. 14 days after treating; 18/13° C.
Protocol: (§4) Tables 5 to 8 summarize results of tests conducted as described below to determine the pre-emergence herbicidal activity, in the form of a GR80 value, of illustrative compounds of this invention. […] Compounds of the invention were typically applied at rates of 300, 100, 30, and 10 g/ha. Where herbicidal activity was evident but 80% inhibition was not achieved at the highest rate tested, an asterisk (*) is shown in the following tables.
(§5) The pre-emergence tests were conducted by the following procedure. Topsoil was sieved to pass through a 1.27 cm screen. Fertilizer was added to the topsoil and the mixture was then sterilized by heating. The topsoil mixture was placed in a pot and compacted to a depth of 1.0 to 1.25 cm from the top of the pot. Seeds of each of several monocotyledonous and dicotyledonous annual plant species were placed on top of the soil. Additional soil was subsequently placed over the seeds to level-fill the pot. A known amount of each test compound dissolved or suspended in an appropriate organic solvent was diluted with a 50:50 mix of acetone and water and applied to the surface of the soil. After treatment the plants were placed in a greenhouse where they received 0.64 cm of overhead irrigation. All subsequent watering consisted of a light overhead mist and/or subirrigation as needed for germination and growth. Tables 5 and 6 below relate to warm season plant species which were placed after pre-emergence treatment in a greenhouse with a 30/21° C. day/night temperature regime. Tables 7 and 8 below relates to cool season plant species placed after pre-emergence treatment in a greenhouse or growth chamber with an 18/13° C. day/night temperature regime.
(§6) Approximately 14 days after planting and treating, the plants were observed and herbicidal efficacy recorded as percent inhibition by comparison with untreated plants.
(§7) The plant species usually regarded as weeds which were utilized in the tests are identified in the tables below according to the following legend, in which “d” indicates a dicotyledonous species and “m” a monocotyledonous species. All monocotyledonous species included in the tests herein are grasses.

[9] = test system: BRAPP (broadleaf signalgrass); assay: Pre-emergence herbicidal activity, warm season; format: in vivo, Brachiaria platyphylla; settings: GR80 = lowest tested rate (300, 100, 30, 10 g/ha) with 80% or greater inhibition; approx. 14 days after treating; 30/21° C.
Summary of the method: as §2

POLCO (wild buckwheat) = assay: Pre-emergence herbicidal activity, cool season; format: in vivo, Polygonum convolvulus; settings: lowest tested rate with 80% or greater inhibition; rates 300, 100, 30, 10 g/ha; about 14 days
Summary of the method: as §3

[10] = test system: VERPE (creeping speedwell); assay: Pre-emergence herbicidal activity, cool season; format: in vivo, Veronica persicaria; settings: lowest tested rate with 80% or greater inhibition; rates 300, 100, 30, 10 g/ha; about 14 days
Summary of the method: as §1

DIGSA (large crabgrass) = assay: Pre-emergence herbicidal activity, warm season; format: in vivo, Digitaria sanguinalis; settings: GR80 = lowest tested rate (300, 100, 30, 10 g/ha) with 80% or greater inhibition; approx. 14 days after treating; 30/21° C.
Summary of the method: as §3

KCHSC (kochia) = assay: Pre-emergence herbicidal activity, cool season; format: in vivo, Kochia scoparia; settings: lowest tested rate with 80% or greater inhibition; rates 300, 100, 30, 10 g/ha; about 14 days
Protocol: as §4, §5, §6, §7

## CCN(CC)C(=O)n1cnc(S(=O)(=O)C(F)(F)c2ccccc2)n1 [Example 5]
STEME (common chickweed)
  Pre-emergence activity GR80, STEME: [empty]
SASKR (russian thistle)
  Pre-emergence activity GR80, SASKR: 300 g/ha
SETVI (green foxtail)
  Pre-emergence activity (GR80) SETVI: 100 g/ha
ECHCG (barnyardgrass)
  Pre-emergence activity (GR80) ECHCG: 300 g/ha
SINAR (wild mustard)
  Pre-emergence activity GR80, SINAR: 100 g/ha
[1]
  Pre-emergence activity (GR80) CIRAR: 100 g/ha
[2]
  Pre-emergence activity (GR80) PANMI: 100 g/ha
[3]
  Pre-emergence activity (GR80) CHEAL: 300 g/ha
[4]
  Pre-emergence activity (GR80) SORHA: 100 g/ha
SOLNI (black nightshade)
  Pre-emergence activity (GR80) SOLNI: 300 g/ha
ALOMY (blackgrass)
  Pre-emergence activity (GR80) ALOMY: * (activity observed, at least at highest rate, but <80% inhibition)
SETFA (giant foxtail)
  Pre-emergence activity (GR80) SETFA: 100 g/ha
AMARE (redroot pigweed)
  Pre-emergence activity (GR80) AMARE: 100 g/ha
[5]
  Pre-emergence activity (GR80) AGSST: 30 g/ha
[6]
  Pre-emergence activity GR80, LAMPU: [empty]
[7]
  Pre-emergence activity GR80, GALAP: [empty]
[8]
  Pre-emergence activity (GR80) AGRRE: * (activity observed, at least at highest rate, but <80% inhibition)
[9]
  Pre-emergence activity (GR80) BRAPP: 300 g/ha
POLCO (wild buckwheat)
  Pre-emergence activity GR80, POLCO: [empty]
[10]
  Pre-emergence activity GR80, VERPE: 100 g/ha
DIGSA (large crabgrass)
  Pre-emergence activity (GR80) DIGSA: 100 g/ha
KCHSC (kochia)
  Pre-emergence activity GR80, KCHSC: [empty]
